Test results published in ChEMBL document CHEMBL1949619, “Synthesis of potent oxindole CDK2 inhibitors” (Bioorg Med Chem, 2003).

Assays:
[1] = target: Cyclin-dependent kinase 2/cyclin E1 (Homo sapiens, UniProt P24941); assay: Inhibition of human CDK2/CyclinE expressed in baculovirus insect cell system using Rb as substrate after 30 mins by scintillation counting
RKO = assay: Antiproliferative activity against human RKO cells after 5 days by MTT assay; format: functional, cell-based; conditions: 120 h
MDA-MB-435 = assay: Antiproliferative activity against human MDA-MB-435 cells after 5 days by MTT assay; format: functional, cell-based; conditions: MDA-MB-435, 120 h
[2] = Cell cycle arrest in human 1043SK cells assessed as accumulation at G1 phase measuring reduction of BrdU incorporation of into cellular DNA by ELISA; format: functional, cell-based

Structure (SMILES) | IC50 [1] | IC50 (MDA-MB-435) | IC50 [2] | IC50 (RKO)
COc1ccc2c(c1)/C(=C/c1[nH]ccc1OC)C(=O)N2 | 209 nM | 8080 nM | – | 3860 nM
COc1cc[nH]c1/C=C1\C(=O)Nc2ccc([N+](=O)[O-])cc21 | 39 nM | 7460 nM | – | 692 nM
COc1cc[nH]c1/C=C1\C(=O)Nc2ccc([N+](=O)[O-])c(N3CC[C@@H](O)C3)c21 | 3 nM | 88 nM | 830 nM | 32 nM
COc1cc[nH]c1/C=C1\C(=O)Nc2ccc([N+](=O)[O-])c(N3CC[C@H](O)C3)c21 | 5 nM | 104 nM | – | 37 nM
COc1cc[nH]c1/C=C1\C(=O)Nc2ccc([N+](=O)[O-])c(N3CCCC(CO)C3)c21 (centres undefined) | 2 nM | 441 nM | – | 124 nM
COc1cc[nH]c1/C=C1\C(=O)Nc2ccc([N+](=O)[O-])c(N[C@H]3CC[C@H](O)CC3)c21 | 6 nM | 8550 nM | – | 8040 nM
COc1cc[nH]c1/C=C1\C(=O)Nc2ccc([N+](=O)[O-])c(NC3CCNCC3)c21 | 5 nM | 139 nM | – | 24 nM
COc1cc[nH]c1/C=C1\C(=O)Nc2ccc([N+](=O)[O-])c(N3CCC(N)CC3)c21 | 5 nM | < 10 nM | – | < 10 nM
COc1cc[nH]c1/C=C1\C(=O)Nc2ccc([N+](=O)[O-])c(N3CC[C@@H](N)C3)c21 | 3 nM | < 10 nM | – | < 10 nM
COc1cc[nH]c1/C=C1\C(=O)Nc2ccc([N+](=O)[O-])c(N[C@H]3CC[C@H](N)C3)c21 (racemic) | 5 nM | 61 nM | – | < 15 nM

Further lines, with some results ahead:

IC50 [1] | IC50 (MDA-MB-435) | IC50 [2] | Structure (SMILES) | IC50 (RKO)
5360 nM | – | – | COc1cc[nH]c1/C=C1\C(=O)Nc2ccccc21 | –
847 nM | > 30000 nM | – | COc1cc[nH]c1/C=C1\C(=O)Nc2ccc(F)cc21 | 11900 nM
1750 nM | > 30000 nM | – | COc1cc[nH]c1/C=C1\C(=O)Nc2ccc([N+](=O)[O-])c(-n3ccnc3)c21 | 3920 nM
28 nM | 1270 nM | – | COc1cc[nH]c1/C=C1\C(=O)Nc2ccc([N+](=O)[O-])c(N3CCNC(C(N)=O)C3)c21 (centres undefined) | 449 nM
6 nM | 623 nM | – | COc1cc[nH]c1/C=C1\C(=O)Nc2ccc([N+](=O)[O-])c(N3CCCC(C(N)=O)C3)c21 (centres undefined) | 192 nM
5 nM | 163 nM | – | COc1cc[nH]c1/C=C1\C(=O)Nc2ccc([N+](=O)[O-])c(N3CC[C@H](C(N)=O)C3)c21 | 50 nM
2 nM | 250 nM | – | COc1cc[nH]c1/C=C1\C(=O)Nc2ccc([N+](=O)[O-])c(N3CCCC(O)C3)c21 (centres undefined) | 105 nM
4 nM | 46 nM | – | COc1cc[nH]c1/C=C1\C(=O)Nc2ccc([N+](=O)[O-])c(N3CCC(O)CC3)c21 | < 10 nM
3 nM | 33 nM | – | COc1cc[nH]c1/C=C1\C(=O)Nc2ccc([N+](=O)[O-])c(N3CC[C@@H](NC=O)C3)c21 | 32 nM
5 nM | 1000 nM | – | COc1cc[nH]c1/C=C1\C(=O)Nc2ccc([N+](=O)[O-])c(N[C@H]3CC[C@H](O)C3)c21 (racemic) | 339 nM
